Results: US20140377773A1, “Detection Marker for Anticancer Effects by Selenomethionine as an Inhibitor of Environmental Toxicity” (Dongguk University Industry-Academic Cooperation Foundation, priority 2013, published 2014)

Legend:
CRC = settings: patients who take selenium (Marshall 2008); cited from earlier work
PHB (prohibitin) = assay: Immunohistochemical analysis of colon tissue: PHB; assay type: in vivo, mouse; settings: immunohistochemistry
Procedure: (§1) Immunohistochemical analysis of the PHB, PNP, ANXA2 and CRP markers determined in Example 4 for the colon tissue samples obtained from groups 1 to 4 in Example 1 was performed.
(§2) Specifically, the colon paraffin sections obtained from the mice of groups 1 to 4 in […] were deparaffinized and rehydrated. In addition, endogenous peroxidases were quenched with methanol containing 0.3% H2O2 for 20 minutes. The sections were incubated with the primary antibodies anti-prohibitin (H-80) (sc-28259, Santa Cruz Biotechnology), anti-PNP (sc-135163, Santa Cruz Biotechnology), anti-CRP (H-90) (sc-30047, Santa Cruz Biotechnology), anti-annexin II (H-50) (sc-9061, Santa Cruz Biotechnology) and anti-8-OhdG (MOG-100P, JaICA) at 4° C. overnight. Then, the sections were incubated with biotin-conjugated secondary antibodies corresponding to the primary antibodies for 30 minutes, after which the sections were washed with PBS and incubated with streptavidin horseradish peroxidase (Vector Labs) for 30 minutes. The sections were washed with PBS, and then incubated with a DAB (3,3′-diaminobenzidine) substrate solution containing 1.8×10^−3% (v/v) of H2O2 for 10 minutes. […] The degree of staining of each of the markers in tumor cells developed in the stained tissues of each group was measured according to the method described in “Charafe-Jauffret, E., et al. (2004). […]

ANXA2 (annexin A2) = assay: Immunohistochemical analysis of colon tissue: ANXA2; assay type: in vivo, mouse
Procedure: as §1, §2

[1] = tested on: AOM-DSS-induced colorectal cancer; assay: Histopathological observation (H & E) of colon tissue of AOM-DSS mice; assay type: in vivo, mouse; settings: group 4 (SeMet pretreatment + AOM-DSS) compared to group 3 (AOM-DSS alone)
Procedure: (§3) Each of the colons extracted from the mice in Example 1 was fixed in 10% formalin, and then embedded in paraffin to make FFPE (paraffin-embedded) samples. Each of the FFPE samples was sectioned to a thickness of 10 μm and mounted on micro-slides (MUTO-GLASS, Japan), followed by drying at 37° C. overnight. Then, the paraffin sections were deparaffinized with xylene and concentration gradient alcohol. The deparaffinized tissue sections were stained with hematoxylin and eosin (H & E) (Sigma Aldrich) and an antibody (MOG-100P, JaICA) of 8-OHdG (8-hydroxy-2′-deoxyguanosine) known as an oxidative stress marker.

[2] = tested on: PNP (purine nucleoside phosphorylase); assay: Immunohistochemical analysis of colon tissue: PNP; assay type: in vivo, mouse; settings: immunohistochemistry
Procedure: as §1, §2

AOM-DSS mouse model = assay type: in vivo; settings: group 4 (15 ppm SeMet pretreatment + AOM-DSS) compared to group 3 (AOM-DSS)
Procedure: In order to examine the chemopreventive activity of SeMet (selenomethionine) against the development of colorectal cancer, the frequency and size of colon polyps in an inflammation-related colorectal cancer-induced mouse model according to the intake of SeMet (selenomethionine) were examined.
Specifically, an experiment was performed using forty eight 5-week-old ICR male mice (Lab Animal, Korea) divided into the following groups: group 1: treated with neither SeMet (selenomethionine) nor AOM-DSS; group 2: treated with 15 ppm SeMet (selenomethionine) (Pharma Se Inc, USA); group 3: treated with AOM-DSS; and group 4: pretreated with 15 ppm SeMet (selenomethionine) and then treated with AOM-DSS (FIGS. 1A and 1B).
AOM (azoxymethane) (Sigma-Aldrich Co, USA) that is a colorectal cancer-inducing substance was injected intraperitoneally (i.p.) into the mice at a dose of 10 mg/kg, and 1.5% (w/v) of dextran sodium sulfate (DSS) (MP Biomedicals, LLC, USA) that is a colitis-inducing substance was allowed to drink for one week after injection of AOM.
The mice of the four groups were euthanized with CO2 gas when reached 22 weeks of age, and the colons were extracted and observed.

[3] = tested on: AOM-induced premalignant lesions; settings: AOM-DSS mouse models (Baines 2000); cited from earlier work
CRP (C-reactive protein) = assay: Immunohistochemical analysis of colon tissue: CRP; assay type: in vivo, mouse
Procedure: as §1, §2

[4] = tested on: 8-OHdG (8-hydroxy-2'-deoxyguanosine); assay: 8-OHdG oxidative stress marker staining of colon tissue; assay type: in vivo, mouse; settings: group pretreated with SeMet and treated with AOM-DSS compared to group treated with AOM-DSS
Procedure: as §3

colon tissues = assay: 2-DE and nano-HPLC-ESI-QIT-MS proteomics of colon tissue; assay type: in vivo, mouse; settings: group 4 vs group 3
Procedure: In order to investigate the molecular target of SeMet (selenomethionine) having chemopreventive activity against colorectal cancer, the colon tissue samples obtained from the mice of groups 1 to 4 in Example 1 were analyzed using a 2-DE (2-dimensional electrophoresis) method.
Specifically, the colon tissues (excluding polyps) obtained from group 1 treated neither with SeMet (selenomethionine) nor AOM-DSS, group 2 treated with 15 ppm SeMet (selenomethionine) (Pharma Se Inc, USA), group 3 treated with AOM-DSS and group 4 treated with AOM-DSS after pretreatment with 15 ppm SeMet (selenomethionine) were washed with homogenization buffer A (50 mM Tris-HCl (pH7.5), 2 mM EDTA, 150 mM NaCl and 0.5 mM DTT) and then cut to small pieces. The pieces were homogenized in buffer (50 mM Tris-HCl (pH 7.5), 0.25 M sucrose, 5 mM magnesium acetate, 0.2 mM EDTA and 0.5 mM DTT) supplemented with Halt™ protease inhibitor cocktail (Thermo Fisher Scientific, Rockford, Ill.) on ice using a grinding kit (GE Healthcare Life Science, Uppsala, Sweden). Then, the solution was centrifuged at 13,000 rpm at 4° C. for 30 minutes, and 10% trichloroacetic acid was added to the supernatant to precipitate proteins. The collected precipitate was dissolved in rehydration buffer (8 M urea, 2% CHAPS, 50 mM DTT and 0.2% IPG buffer), and then, in order to perform 2D gel electrophoresis, the concentration of the proteins was adjusted with a BCA protein analysis kit (Thermo Fisher Scientific), and 200 μg of each protein was separated with Immobiline Dry Strip (pH 4-7, 18 cm, GE healthcare). 2D separation was performed on 12% acrylamide gel in Ettan Dalt II system (10 mA/gel; 1 hr, 40 mA/gel; >6 hr) (GE Healthcare Life Science, Uppsala, Sweden) for 7 hours. Then, the gel having proteins separated thereon stained using silver staining technology, after which the image of the gel was analyzed using Progenesis SameSpots software (version. 4.1, Nonlinear Dynamics, Newcastle, UK), and spots on the gel were detected. In analysis of the gel image, the gel was automatically aligned by measurement of alignment vectors using an analysis wizard, and master images of the experimental groups were made using Progenesis SameSpots software. The master images were used to normalize and quantify the spot volume and to analyze the proteins showing a difference in expression between the groups.
In order to investigate the molecular target of SeMet (selenomethionine) having chemopreventive activity against colorectal cancer, the colon tissue samples obtained from groups 1 to 4 in Example 1 were analyzed by mass spectrometry.
The cut spots were treated with trypsin, and protein identification was performed using a nano LC/MS system composed of a Surveyor HPLC system (Thermo Scientific, Waltham, Mass.) equipped with a nano-ESI source and an electrospray ionization (ESI)-quadrupole ion trap (QIT) mass spectrometer (LCQ Deca XP-Plus, Thermo Finnigan, San Jose, Calif., USA). In order to desalt and concentrate 10 μl of trypsin peptides, the peptide was loaded into a C18 trap column (i.d. 300 μm, length 5 mm, particle size 5 μm; LC Packings, Amsterdam, Netherlands) through an auto sampler at a flow rate of 20 μl/min. Then, the trapped peptides were allowed to flow backward and separated in a C18 reversed-phase capillary column (75 μm silica tube, length 150 mm, particle size 5 μm). The pump flow rate was split 1:100 for a column flow rate of […]. Mobile phase A was a solution of a mixture of 0.5% acetic acid and 0.02% formic acid in water, and mobile phase B was a solution of a mixture of 0.5% acetic acid and 0.02% formic acid in 80% acetonitrile. The samples were injected into the column and eluted by mobile phase B at a concentration gradient of 5-5 20 50 60 80 100% for 0-15-18-50-55-60-62 minutes, respectively. MS and MS/MS spectra were obtained using a capillary tube (temperature: 220° C., ESI voltage: 2.5 kV, and collision energy: 35%). […]

[5] = administration of SeMet alone (group 2)
[6] = group 4 (SeMet pretreatment + AOM-DSS) vs AOM-DSS-induced colorectal cancer tissue
[7] = pretreatment with SeMet + AOM-DSS vs colorectal cancer development, immunohistochemistry

[Se] [selenium]
reduction of the risk of CRC (CRC): about 50%

C[Se]CC[C@H](N)C(=O)O [SeMet, selenomethionine]
expression of PHB (PHB (prohibitin); [5]): increased | expression of PHB (PHB (prohibitin); [6]): increased again | expression of ANXA2 (ANXA2 (annexin A2); SeMet administered alone): did not change | expression of ANXA2 (ANXA2 (annexin A2); [7]): decreased | dysplasia and neoplastic lesions [1]: decreases | expression of PNP [2, 5]: increased | expression of PNP [2, 6]: increased again | polyps in the colon (AOM-DSS mouse model): significantly decreased | development of AOM-induced premalignant lesions [3]: reduces | expression of CRP (CRP (C-reactive protein); SeMet administered alone): did not change | expression of CRP (CRP (C-reactive protein); [7]): decreased | 8-OHdG in colon tissue [4]: decreased | Expression in SeMet/AOM-DSS (colon tissues; Alcohol dehydrogenase (Akr1a4), spot 50): Decreased | Expression in SeMet/AOM-DSS (colon tissues; Aldose reductase (Akr1b3), spot 49): Decreased | Expression in SeMet/AOM-DSS (colon tissues; Annexin 1 (Anxa1), spot 51): Decreased | Expression in SeMet/AOM-DSS (colon tissues; Annexin 2 (Anxa2), spot 48): Decreased | Expression in SeMet/AOM-DSS (colon tissues; Annexin 3 (Anxa3), spot 40): Increased | Expression in SeMet/AOM-DSS (colon tissues; Annexin 7 (Anxa7), spot 57): Increased | Expression in SeMet/AOM-DSS (colon tissues; Beta-actin (Actb), spot 39): Increased | Expression in SeMet/AOM-DSS (colon tissues; C-reactive protein (Crp1), spot 14): Decreased | Expression in SeMet/AOM-DSS (colon tissues; Cofilin 1 (Cfl1), spot 4): Decreased | Expression in SeMet/AOM-DSS (colon tissues; Cofilin 2 (Cfl2), spot 4): Decreased | Expression in SeMet/AOM-DSS (colon tissues; Destrin (Dstn), spot 5): Decreased | Expression in SeMet/AOM-DSS (colon tissues; Eukaryotic translation initiation 5A (Eif5a), spot 10): Increased | Expression in SeMet/AOM-DSS (colon tissues; Glutathione transferase omega 1 (Gsto1), spot 25): Decreased | Expression in SeMet/AOM-DSS (colon tissues; Hypoxanthine-guanine phosphoribosyltransferase 1 (Hprt1), spot 29): Decreased | Expression in SeMet/AOM-DSS (colon tissues; Inorganic pyrophosphatase 1 (Ppa1), spot 38): Increased | Expression in SeMet/AOM-DSS (colon tissues; Isoform 1 of Isocitrate dehydrogenase [NAD] subunit alpha (Idh3a), spot 41): Increased | Expression in SeMet/AOM-DSS (colon tissues; Isoform 1 of Tropomyosin alpha-1 chain (Tpm1), spot 43): Decreased | Expression in SeMet/AOM-DSS (colon tissues; L-lactate dehydrogenase A chain (Ldha), spot 47): Decreased | Expression in SeMet/AOM-DSS (colon tissues; Nucleoside diphosphate kinase B (Nme2), spot 8): Decreased | Expression in SeMet/AOM-DSS (colon tissues; Peroxiredoxin 1 (Prdx1), spot 16, 21): Decreased | Expression in SeMet/AOM-DSS (colon tissues; Peroxiredoxin 4 (Prdx4), spot 16, 21): Decreased | Expression in SeMet/AOM-DSS (colon tissues; Phosphoglycerate mutase 2 (Pgam2), spot 24): Decreased | Expression in SeMet/AOM-DSS (colon tissues; Prohibitin (Phb), spot 34): Increased | Expression in SeMet/AOM-DSS (colon tissues; Proteasome activator complex subunit 1 (Psme1), spot 32): Increased | Expression in SeMet/AOM-DSS (colon tissues; Proteasome subunit beta type 1 precursor (Psmb1), spot 18): Decreased | Expression in SeMet/AOM-DSS (colon tissues; Purine nucleoside phosphorylase (Pnp), spot 33): Increased | Expression in SeMet/AOM-DSS (colon tissues; S-formylglutathione hydrolase (Esd), spot 46): Decreased | Expression in SeMet/AOM-DSS (colon tissues; Transaldolase (Taldo1), spot 52): Decreased | Expression in SeMet/AOM-DSS (colon tissues; Triosephosphate isomerase 1 (Tpi1), spot 19, 23): Decreased | Expression in SeMet/AOM-DSS (colon tissues; Ubiquinol cytochrome c reductase 1 (Uqcrfs1), spot 20): Decreased
